Active and inactive are the calls of the source. The calls are words filed in the database; no cut-off is given here.

As a reminder, the inhibition is the change of the read-out against control, counted positive when it falls.

The target in the first assay is Signal transducer and activator of transcription 3 (Homo sapiens) (UniProt P40763). Description: Inhibition of STAT3 (unknown origin) expressed in human HCT116 cells at 10 uM by dual luciferase assay relative to (+) enantiomer. The note with it: HCT-116. The class given is cell-based.
Sequence of Signal transducer and activator of transcription 3 (Homo sapiens) (P40763 whole entry): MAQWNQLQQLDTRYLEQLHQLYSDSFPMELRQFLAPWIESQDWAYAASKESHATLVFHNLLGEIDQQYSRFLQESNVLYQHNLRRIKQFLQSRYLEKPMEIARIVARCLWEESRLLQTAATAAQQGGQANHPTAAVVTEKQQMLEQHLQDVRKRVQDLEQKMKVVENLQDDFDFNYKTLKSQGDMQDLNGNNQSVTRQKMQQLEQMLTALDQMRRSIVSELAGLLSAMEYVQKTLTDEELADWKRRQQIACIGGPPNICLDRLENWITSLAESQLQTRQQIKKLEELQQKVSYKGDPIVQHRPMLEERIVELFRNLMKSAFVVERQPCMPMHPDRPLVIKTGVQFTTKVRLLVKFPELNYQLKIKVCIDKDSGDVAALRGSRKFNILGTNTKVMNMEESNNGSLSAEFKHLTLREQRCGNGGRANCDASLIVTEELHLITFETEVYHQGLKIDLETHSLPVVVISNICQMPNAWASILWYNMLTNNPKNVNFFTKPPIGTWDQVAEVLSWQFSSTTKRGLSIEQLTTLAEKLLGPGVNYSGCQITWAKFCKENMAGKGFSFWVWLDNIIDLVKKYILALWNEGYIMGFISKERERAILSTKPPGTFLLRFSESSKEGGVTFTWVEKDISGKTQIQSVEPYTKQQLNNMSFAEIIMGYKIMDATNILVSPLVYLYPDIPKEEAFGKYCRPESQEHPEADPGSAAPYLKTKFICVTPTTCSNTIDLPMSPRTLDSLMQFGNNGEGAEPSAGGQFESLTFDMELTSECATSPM
With `CCOC(=O)CCCN1N=C2c3ccccc3CC[C@H]2CC1=O`, the fold change (FC) was 2.

The next assay shares this target. Description: Binding affinity to STAT3 SH2 domain (unknown origin) pre-incubated 15 mins before (FITC)-GpYLPQTV probe and measured after 90 mins by Alpha screen assay.
Conditions: not given
Background: Bead proximity is the source of the signal in Alpha formats.
Turning to `CCOC(=O)CCCN1N=C2c3ccccc3CCC2CC1=O` (racemic), the outcome was inactive.

The target is the same in another assay. Description: Inhibition of STAT3 (unknown origin) expressed in human HCT116 cells at 2 uM by dual luciferase assay. The class given is cell-based. The note with it: HCT-116.
Take `O=C1CC2CCc3ccccc3C2=NN1` (stereo unspecified): the inhibition was -6%.

In the case of `CCOC(=O)CCCN1N=C2c3ccccc3CCC2CC1=O` (racemic), the inhibition was 46%.

Take `CCNCCCCN1N=C2c3ccccc3CCC2CC1=O` (stereo unspecified): the inhibition was 3%.

For `CCCCCN1N=C2c3ccccc3CCC2CC1=O` (stereo unspecified), the inhibition was found to be 22%.

For `CCOC(=O)CCCCCCN1N=C2c3ccccc3CCC2CC1=O` (stereo unspecified), the inhibition worked out at 22%.

For `CCOC(=O)CCCCCN1N=C2c3ccccc3CCC2CC1=O` (stereo unspecified), the inhibition came to 25%.

In the case of `CCNC(=O)CCCN1N=C2c3ccccc3CCC2CC1=O` (stereo unspecified), the inhibition was 16%.

On to `CCOC(=O)CN1N=C2c3ccccc3CCC2CC1=O` (stereo unspecified), for which the inhibition was determined as 3%.

For the compound `O=C(O)CCN1N=C2c3ccccc3CCC2CC1=O` (stereo unspecified), the inhibition is -2%.

On to `CCOC(=O)CCCN1N=C2c3ccccc3CC2CC1=O` (stereo unspecified), for which the inhibition was 28%.

Regarding `O=C1CC2CCc3ccccc3C2=NN1CCCc1nn[nH]n1` (stereo unspecified), the inhibition was -9%.

Consider `C[C@H]1COC2=C1C(=O)C(=O)c1c2ccc2c1CCCC2(C)C`, for which the inhibition came out at 25%.

Turning to `O=C(O)CCCN1N=C2c3ccccc3CCC2CC1=O` (stereo unspecified), the inhibition is 8%.

For the compound `CCOC(=O)CCCn1nc2c(cc1=O)CCc1ccccc1-2`, the inhibition is 1%.

For `CCCCN1N=C2c3ccccc3CCC2CC1=O` (stereo unspecified), the inhibition is -9%.

As for `CCOC(=O)CCCN1N=C2c3cc(OC)cc(OC)c3CCC2CC1=O` (stereo unspecified), the inhibition was found to be 23%.

Take `CCOC(=O)CCCCN1N=C2c3ccccc3CCC2CC1=O` (stereo unspecified): the inhibition came out at 21%.

With `CCOC(=O)CCCN1N=C2c3ccc(Cl)cc3CCC2CC1=O` (stereo unspecified), the inhibition was 9%.

`CCOC(=O)CCN1N=C2c3ccccc3CCC2CC1=O` (stereo unspecified): the inhibition came out at 30%.
